Columns and labels:
[1] = system: C. albicans mono-species biofilm; experiment: biofilm formation on polystyrene (XTT, CFU); assay type: cell-based, Candida albicans; details: treated vs untreated mono-species biofilms
Experimental: The effect of L-161,982 on biofilm formation was tested. Mono- and dual-species C. albicans and/or S. aureus biofilms were grown on 96-well plates for 24 h with the indicated concentration of L-161, 982. After incubation, metabolic activity of biofilms was quantified by the XTT assay (A) and then biofilms were disrupted to determine live colony forming units (CFU) (B). The results are cumulative of three independent experiments with duplicate samples. Statistics was performed using One-way ANOVA with the Tukey post-hoc test for the XTT assay. The Mann-Whitney U test was used to analyze CFU data. Significance is indicated as follows: ns—not significant, *P<0.05; *** P<0.001. Error bars represent standard deviation.
Following growth as described above, microbes were washed in phosphate-buffered saline (PBS) by centrifugation, counted on a hemocytometer, and adjusted to 2×10^7 CFU/ml in RPMI buffered with MOPS (165 mM). […]
The XTT reduction assay was used to determine the metabolic activity of biofilms following treatment with L-161, 982 (17). Briefly, wells were washed once in PBS, and plates incubated at 37° C. for 2 h with 200 μl XTT working reagent (0.5 mg/ml XTT and 1 μM Menadione) and the resulting absorbance measured at 490 nm on a microplate spectrophotometer. […]

MRSA = experiment: checkerboard broth microdilution synergy test with oxacillin; assay type: cell-based, Staphylococcus aureus; details: combination with oxacillin
Experimental: Due to the newfound antimicrobial activity of L-161, 982 against S. aureus, the checkerboard method (14) with the broth microdilution method, was used to test for synergy with oxacillin, a drug similar to methicillin used more commonly in the clinical setting. Synergy was determined using the fractional inhibitory concentration index (FICI) method (14, 15). With this method, the MIC of the antibiotic compound in combination is divided by the MIC of the compound alone, giving the fractional contribution of each drug component in combination. Quotients for all compounds in combination are summed and drug interactions scored using the formula:
FICI=((MIC AcombA+B)/MICA)+((MIC BcombA+B)/MICB)
The stock solutions and serial twofold dilutions of oxacillin ranged from 8× the MIC to 32× below the MIC and that of L-161, 982 ranged from 8× the MIC to 2000× below the MIC. Oxacillin was serially diluted along the ordinate, while L-161, 982 was diluted along the abscissa. The resulting checkerboard contained each combination of two drugs, with wells that contain the highest concentration of each antibiotic at opposite corners. Each microtiter well was inoculated with 1×10^5 CFU. The plates were incubated at 37° C. for 24 h and the OD600 measured using a microplate spectrophotometer. […]

## CCCCc1nn(-c2ccccc2C(F)(F)F)c(=O)n1Cc1ccc(-c2ccccc2S(=O)(=O)NC(=O)c2sccc2C)cc1 [L-161, 982, N-[[4′-[[3-Butyl-1,5-dihydro-5-oxo-1-[2-(trifluoromethyl)phenyl]-4H-1,2,4-triazol-4-yl]methyl][1,1′-biphenyl]-2-yl]sulfonyl]-3-methyl-2-thiophenecarboxamide]
[1]
  metabolic activity during biofilm formation: no significant inhibition
MRSA
  fractional inhibitory concentration (FIC) index: 0.563

Source: patent US20200352912A1, “ANTIMICROBIAL COMPOSITIONS AND METHODS OF USING THE SAME” (The Board Of Supervisors Of Louisiana State University And …, priority 2018, published 2020)
